The values that follow come from patent US9990464B1, “Label-free biomolecular interaction analysis using a rapid analyte dispersion injection method” (SENSIQ TECHNOLOGIES, INC., priority 2012, dated 2018).

A short description of this series: apparent (effective) diffusion coefficient from internal standard-based calibration of the dispersion model. The note with it: coiled tube, 50 μL/min, 25° C.; sucrose internal standard and Equation 1 calibration by Mr. Format: physicochemical. How it is done:
In one example, the rapid dispersion injection method is performed in a biosensor comprising a flow channel conduit that is in fluid connection with a flow cell conduit downstream from the analyte sample injection point. The flow channel conduit is tightly coiled around a vertically-oriented support and is preferably filled with a carrier fluid free of analyte prior to the analyte sample injection. Although it is preferred to use a vertically-oriented coil, it is not essential and other configurations are possible. The flow cell conduit houses at least two sensing regions, a first sensing region having one or more ligands immobilized on its surface and a second sensing region free of ligand. A first fluid sample comprising a reference material (e.g. sucrose) of sufficient molecular weight and concentration to elicit a bulk refractive index response is injected into the flow channel conduit under conditions sufficient to cause the reference material to undergo a dispersion event in route to the flow cell thereby producing a concentration gradient. […] The bulk refractive index response of the reference material is recorded at the second sensing surface as the first fluid sample flows continuously through the flow cell thereby generating a standard curve. The standard curve provides an internal standard which acts as a witness to the particular injection conditions of that assay. The standard curve is then fitted to the dispersion model (Equations 2 and 3 described below) to calculate a reference diffusion coefficient. […]
In brief, the universal calibration function was determined by measuring the bulk refractive index response of eight different compounds of varying molecular (Mr) under twenty-seven experimental dispersion conditions. […] An apparent diffusion coefficient (D′) was obtained for the eight compounds by fitting the dispersion model defined by Equations 2 and 3 (set forth below) to each measured bulk refractive index response curve. […]
Turning to `CC(=O)Nc1nnc(S(N)(=O)=O)s1` [Acetazolamide, acetazolamide], the “Dapp (apparent / effective diffusion coefficient)” value is 9.67E−10 m^2s^−1.
As for `NS(=O)(=O)c1ccc(C(=O)O)cc1` [CBS, 4-carboxybenzenesulfonamide], the “Dapp (apparent / effective diffusion coefficient)” value is recorded as 1.01E−09 m^2s^−1.
As for `NS(=O)(=O)c1cc(C(=O)O)c(NCc2ccco2)cc1Cl` [Furosemide, furosemide], the “Dapp (apparent / effective diffusion coefficient)” value was determined as 8.29E−10 m^2s^−1.
